The structures appear in SMILES notation. ≈ marks a conversion by molar mass, not a printed value. Where two headings read alike, the source gives them in different places.

Here are results for 15 compounds from US12173018B2, “Penicillin-binding protein inhibitors” (priority 2018, dated 2024).

One test has as its target E. coli PBP4 (Escherichia coli (strain K12), UniProt P24228). Nature of the test: E. coli PBP4 Bocillin-FL fluorescence polarization competition binding assay. An excerpt:
To determine the ability of boronic acid-based test PBP inhibitors to bind Penicillin Binding Proteins (PBPs), Bocillin-FL (fluorescently-labeled penicillin V; ThermoFisher Scientific) was used in a fluorescence polarization (FP) competition binding assay to assess inhibitor binding to PBP2, PBP3 or PBP4 from Escherichia coli. PBPs were cloned and purified as described previously (King, D. T, et al., ACS Infectious Diseases 2015, 1, 175-184). To establish assay conditions for competition binding, an enzyme titration/saturation binding experiment was initially performed. Bocillin-FL was prepared at 0.2 μM in a buffer comprised of 50 mM Hepes (pH 8.0), 300 mM NaCl and 5% (v/v) glycerol. Saturation binding was performed by mixing 40 μl of PBP solutions ranging in concentrations from 0-12 μM with 40 μl of the 0.2 μM Bocillin-FL solution, in individual wells of a black 384-well microplate. FP was measured immediately upon mixing (Excitation, 490 nm; Emission, 520 nm; g-factor, 0.96), using a Cytation3 (BioTek) microplate reader and measured continuously for up to 120 minutes. […] Assays (80 μl final volume) were performed with PBPs at a final concentration of 1.5 μM, Bocillin-FL at 0.1 μM and beta-lactam concentrations that ranged from 0-1000 μM. […] Bocillin-FL was added and the FP immediately measured for 60 minutes (90 minutes for PBP2). The beta-lactam potency was reported as the concentration of beta-lactam required to reduce binding of Bocillin-FL by […] (EC50). […] Binding assays for boronic acid PBP inhibitors were performed in an identical fashion.
Background: Polarisation of emitted light reports the rotation of a fluorescent probe.

The test system of the next test is N. gonorrhoeae FA1090. Nature of the test: Liquid broth MIC, N. gonorrhoeae FA1090. In kind it is cell-based. As to conditions: Neisseria gonorrhoeae; N. gonorrhoeae FA1090, liquid broth; read-out: Minimum Inhibitory Concentration, N. gonorrhoeae FA1090. Put shortly: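 Broth microdilution, 2-fold compound series; start inoculum 5×10^5 CFU/mL (OD600-adjusted, GC broth pH 7.2, Kellogg's suppl.). 40-42 h, 36° C, 5% CO2. MIC = lowest conc., no visible growth.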

The next test addresses E. coli PBP3 (Escherichia coli (strain K12), UniProt P0AD68). Description: E. coli PBP3 Bocillin-FL fluorescence polarization competition binding assay. In short, it runs like this: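 FP competition: 1.5 μM PBP, 0.1 μM Bocillin-FL, cpd 0–1000 μM; 50 mM Hepes pH 8.0/300 mM NaCl/5% glycerol. Read 490/520 nm immediately after Bocillin-FL addition, 60 min. EC50 = cpd conc. lowering probe binding.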

In test [1] the test system is P. aeruginosa (ΔmexAB-oprM). Description: microbe, parasite or virus in culture. As to conditions: Pseudomonas aeruginosa, read-out: MIC P. aeruginosa ΔmexAB-OprM. The format is cell-based. In short, it runs like this:
(§1)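 Colonies from Mueller Hinton II agar were grown 3-5 hours at 37° C in cation-supplemented broth, adjusted by OD600, then added to 2-fold compound dilutions at 5×10^5 CFU/mL. After 16-20 hours at 37° C, MICs were scored visually.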

A further test deals with P. aeruginosa ATCC 35151. Nature of the test: microbe, parasite or virus in culture. The format is cell-based. As to conditions: Pseudomonas aeruginosa, ATCC35151; hyper-permeable P. aeruginosa ATCC 35151; read-out: MIC P. aeruginosa ATCC 35151. Put shortly: as §1
In another test the test system is P. aeruginosa PAO1. Nature of the test: Broth microdilution MIC, P. aeruginosa PAO1. In kind it is cell-based. Conditions: Pseudomonas aeruginosa; P. aeruginosa PAO1, broth microdilution; read-out: MIC P. aeruginosa PAO1. In short, it runs like this:
as §1
(Dilution methods test growth across graded concentrations, often in twofold steps.)

The subject of another test is A. baumannii ATCC 19606. Nature of the test: Broth microdilution MIC, A. baumannii ATCC 19606. The format is cell-based. As to conditions: Acinetobacter baumannii, ATCC19606; A. baumannii ATCC 19606, broth microdilution; read-out: MIC A. baumannii ATCC 19606. In short, it runs like this: as §1
The mark [2] stands for this setting: fluorescence polarization competition binding with Bocillin-FL, read-out: E. coli K12 PBP4 Potency (EC50).
The mark [3] stands for this setting: fluorescence polarization competition binding with Bocillin-FL, read-out: E. coli K12 PBP3 Potency.

Sequence of E. coli PBP3 (P0AD68 whole entry): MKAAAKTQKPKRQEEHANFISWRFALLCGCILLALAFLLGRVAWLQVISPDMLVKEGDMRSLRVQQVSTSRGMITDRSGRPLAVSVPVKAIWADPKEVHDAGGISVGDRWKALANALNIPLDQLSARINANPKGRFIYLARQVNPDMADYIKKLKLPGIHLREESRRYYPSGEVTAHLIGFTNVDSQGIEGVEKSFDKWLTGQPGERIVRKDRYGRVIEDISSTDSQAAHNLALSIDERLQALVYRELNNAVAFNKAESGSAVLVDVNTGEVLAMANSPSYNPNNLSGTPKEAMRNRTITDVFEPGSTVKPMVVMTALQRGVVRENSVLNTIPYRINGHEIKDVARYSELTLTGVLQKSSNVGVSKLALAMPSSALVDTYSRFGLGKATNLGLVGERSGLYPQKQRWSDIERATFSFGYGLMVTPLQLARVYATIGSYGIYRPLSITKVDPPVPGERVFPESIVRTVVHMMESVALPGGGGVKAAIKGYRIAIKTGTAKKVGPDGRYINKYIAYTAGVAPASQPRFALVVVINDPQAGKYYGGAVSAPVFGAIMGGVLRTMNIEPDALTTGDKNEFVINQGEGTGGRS
Sequence of E. coli PBP4 (P24228 21-477): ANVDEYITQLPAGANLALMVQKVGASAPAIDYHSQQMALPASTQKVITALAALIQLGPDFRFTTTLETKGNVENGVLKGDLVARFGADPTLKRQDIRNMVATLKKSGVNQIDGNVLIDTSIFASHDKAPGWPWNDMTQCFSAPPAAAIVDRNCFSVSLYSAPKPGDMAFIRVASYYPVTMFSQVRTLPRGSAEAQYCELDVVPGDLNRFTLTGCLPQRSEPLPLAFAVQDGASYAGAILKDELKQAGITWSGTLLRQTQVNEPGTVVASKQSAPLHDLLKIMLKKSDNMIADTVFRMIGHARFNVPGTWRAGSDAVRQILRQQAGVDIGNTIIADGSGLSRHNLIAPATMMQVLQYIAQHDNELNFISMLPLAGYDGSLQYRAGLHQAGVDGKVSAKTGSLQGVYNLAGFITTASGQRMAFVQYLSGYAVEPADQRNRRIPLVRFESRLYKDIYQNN

On to `CCN1CCN(C(=O)NC(C(=O)N[C@H]2Cc3cccc(C(=O)O)c3OB2O)c2csc(N)n2)C(=O)C1=O` (stereo partly drawn) [Example 5, (3R)-3-(2-(2-aminothiazol-4-yl)-2-(4-ethyl-2,3-dioxopiperazine-1-carboxamido)acetamido)-2-hydroxy-3,4-dihydro-2H-benzo[e][1,2]oxaborinine-8-carboxylic acid], for which the EC50 on E. coli PBP4 (setting [2]) was over 500 µM. Moreover, in the test with N. gonorrhoeae FA1090, the MIC was under 0.125 µg/mL.
In the case of `CCN1CCN(C(=O)NC(C(=O)N[C@H]2Cc3cc(F)cc(C(=O)O)c3OB2O)c2csc(N)n2)C(=O)C1=O` (stereo partly drawn) [Example 16, (3R)-3-(2-(2-aminothiazol-4-yl)-2-(4-ethyl-2,3-dioxopiperazine-1-carboxamido)acetamido)-6-fluoro-2-hydroxy-3,4-dihydro-2H-benzo[e][1,2]oxaborinine-8-carboxylic acid], the EC50 was 30 to 500 µM on E. coli PBP3 and over 500 µM at E. coli PBP4 (setting [2]).
Turning to `CCN1CCN(C(=O)NC(C(=O)N[C@H]2Cc3cccc(C(=O)O)c3OB2O)c2ccc(O)cc2)C(=O)C1=O` (stereo partly drawn) [Example 27, (3R)-3-(2-(4-ethyl-2,3-dioxopiperazine-1-carboxamido)-2-(4-hydroxyphenyl)acetamido)-2-hydroxy-3,4-dihydro-2H-benzo[e][1,2]oxaborinine-8-carboxylic acid], the EC50 is 30 to 500 µM on E. coli PBP3 and over 500 µM on E. coli PBP4 (setting [2]).
For the compound `CCN1CCN(C(=O)NC(C(=O)N[C@H]2Cc3cccc(C(=O)O)c3OB2O)c2ccc(O)c(O)c2Cl)C(=O)C1=O` (stereo partly drawn) [Example 37, (3R)-3-(2-(2-chloro-3,4-dihydroxyphenyl)-2-(4-ethyl-2,3-dioxopiperazine-1-carboxamido)acetamido)-2-hydroxy-3,4-dihydro-2H-benzo[e][1,2]oxaborinine-8-carboxylic acid], the EC50 at E. coli PBP3 (setting [3]) is under 30 µM; on E. coli PBP4 (setting [2]), over 500 µM. Besides, the MIC with N. gonorrhoeae FA1090 is 1 to 2 µg/mL (≈ 1.74 to 3.48 µM).
For the compound `CCN1CCN(C(=O)NC(C(=O)N[C@H]2Cc3cccc(C(=O)O)c3OB2O)c2cnc(N)s2)C(=O)C1=O` (stereo partly drawn) [Example 51, (3R)-3-(2-(2-aminothiazol-5-yl)-2-(4-ethyl-2,3-dioxopiperazine-1-carboxamido)acetamido)-2-hydroxy-3,4-dihydro-2H-benzo[e][1,2]oxaborinine-8-carboxylic acid], the EC50 at E. coli PBP3 was 30 to 500 µM; at E. coli PBP4 (setting [2]), over 500 µM.
`CCCN1CCN(C(=O)NC(C(=O)N[C@H]2Cc3cccc(C(=O)O)c3OB2O)c2ccc(O)c(O)c2Cl)C(=O)C1=O` (stereo partly drawn) [Example 82, (3R)-3-(2-(2-chloro-3,4-dihydroxyphenyl)-2-(2,3-dioxo-4-propylpiperazine-1-carboxamido)acetamido)-2-hydroxy-3,4-dihydro-2H-benzo[e][1,2]oxaborinine-8-carboxylic acid]: the EC50 is under 30 µM on E. coli PBP3 (setting [3]) and over 500 µM at E. coli PBP4 (setting [2]).
For the compound `CCN1CCN(C(=O)NC(C(=O)N[C@H]2Cc3cccc(C(=O)O)c3OB2O)c2ccc(O)cc2F)C(=O)C1=O` (stereo partly drawn) [Example 87, (3R)-3-(2-(4-ethyl-2,3-dioxopiperazine-1-carboxamido)-2-(2-fluoro-4-hydroxyphenyl)acetamido)-2-hydroxy-3,4-dihydro-2H-benzo[e][1,2]oxaborinine-8-carboxylic acid], the results for the EC50 at E. coli PBP3 (setting [3]) and at E. coli PBP4 (setting [2]) were under 30 µM and over 500 µM, respectively. In addition, the MIC in the test on N. gonorrhoeae FA1090 is under 0.125 µg/mL.
With `CCN1CCN(C(=O)NC(C(=O)N[C@H]2Cc3cccc(C(=O)O)c3OB2O)c2cc(O)c(O)cc2F)C(=O)C1=O` (stereo partly drawn) [Example 90, (3R)-3-(2-(4-ethyl-2,3-dioxopiperazine-1-carboxamido)-2-(2-fluoro-4,5-dihydroxyphenyl)acetamido)-2-hydroxy-3,4-dihydro-2H-benzo[e][1,2]oxaborinine-8-carboxylic acid], the values for the EC50 at E. coli PBP3 (setting [3]) and at E. coli PBP4 (setting [2]) were under 30 µM and over 500 µM, respectively.
For `CCN1CCN(C(=O)N[C@@H](C(=O)N[C@H]2Cc3ccc(F)c(C(=O)O)c3OB2O)[C@@H](C)O)C(=O)C1=O` [Example 110, (R)-3-((2R,3R)-2-(4-ethyl-2,3-dioxopiperazine-1-carboxamido)-3-hydroxybutanamido)-7-fluoro-2-hydroxy-3,4-dihydro-2H-benzo[e][1,2]oxaborinine-8-carboxylic acid], the results for the EC50 on E. coli PBP3 and on E. coli PBP4 (setting [2]) were 30 to 500 µM and over 500 µM, respectively.
For `CCN1CCN(C(=O)NC(C(=O)N[C@H]2Cc3cccc(C(=O)O)c3OB2O)c2cccc(O)n2)C(=O)C1=O` (stereo partly drawn) [Example 117, (3R)-3-(2-(4-ethyl-2,3-dioxopiperazine-1-carboxamido)-2-(6-hydroxypyridin-2-yl)acetamido)-2-hydroxy-3,4-dihydro-2H-benzo[e][1,2]oxaborinine-8-carboxylic acid], the EC50 on E. coli PBP3 was 30 to 500 µM; at E. coli PBP4 (setting [2]) it was over 500 µM.
The corresponding values for `CCN1CCN(C(=O)NC(C(=O)N[C@H]2Cc3cccc(C(=O)O)c3OB2O)c2cnc(O)cn2)C(=O)C1=O` (stereo partly drawn) [Example 121, (3R)-3-(2-(4-ethyl-2,3-dioxopiperazine-1-carboxamido)-2-(5-hydroxypyrazin-2-yl)acetamido)-2-hydroxy-3,4-dihydro-2H-benzo[e][1,2]oxaborinine-8-carboxylic acid] are 30 to 500 µM and over 500 µM.
As for `O=C(O)c1c(F)ccc2c1OB(O)[C@@H](NC(=O)C(NC(=O)N1CCN(CCF)C(=O)C1=O)c1ccc(O)c(O)c1Cl)C2` (some centres unmarked) [Example 131], the EC50 on E. coli PBP3 and at E. coli PBP4 was 30 to 500 µM throughout. The MIC in test [1] was under 0.25 µg/mL; with P. aeruginosa ATCC 35151 it was under 0.25 µg/mL; in the test with P. aeruginosa PAO1, 0.5 to 1 µg/mL; in the test with A. baumannii ATCC 19606, 8 to 16 µg/mL; in the test with N. gonorrhoeae FA1090, 0.25 to 0.5 µg/mL (≈ 0.409 to 0.819 µM).
Regarding `CCN1CCN(C(=O)NC(C(=O)N[C@H]2Cc3ccc(F)c(C(=O)O)c3OB2O)c2cc(O)c(O)cc2F)C(=O)C1=O` (stereo partly drawn) [Example 136, (3R)-3-(2-(4-ethyl-2,3-dioxopiperazine-1-carboxamido)-2-(2-fluoro-4,5-dihydroxyphenyl)acetamido)-7-fluoro-2-hydroxy-3,4-dihydro-2H-benzo[e][1,2]oxaborinine-8-carboxylic acid], the EC50 on E. coli PBP3 (setting [3]) is under 30 µM; on E. coli PBP4 (setting [2]), over 500 µM. Moreover, the MIC lay in the range of 0.5 to 1 µg/mL in test [1]; 0.5 to 1 µg/mL with P. aeruginosa ATCC 35151; 8 to 16 µg/mL in the test with P. aeruginosa PAO1; 2 to 4 µg/mL in the test with A. baumannii ATCC 19606; 1 to 2 µg/mL (≈ 1.74 to 3.47 µM) with N. gonorrhoeae FA1090.
For the compound `CS(=O)(=O)NCCN1CCN(C(=O)NC(C(=O)N[C@H]2Cc3cccc(C(=O)O)c3OB2O)c2ccc(O)c(O)c2Cl)C(=O)C1=O` (stereo partly drawn) [Example 229, (3R)-3-(2-(2-chloro-3,4-dihydroxyphenyl)-2-(4-(2-(methylsulfonamido)ethyl)-2,3-dioxopiperazine-1-carboxamido)acetamido)-2-hydroxy-3,4-dihydro-2H-benzo[e][1,2]oxaborinine-8-carboxylic acid], the EC50 on E. coli PBP3 (setting [3]) is under 30 µM. For the same compound, the MIC in test [1] was under 0.25 µg/mL; in the test on P. aeruginosa ATCC 35151, under 0.25 µg/mL; in the test on P. aeruginosa PAO1, 2 to 4 µg/mL; with A. baumannii ATCC 19606, under 0.25 µg/mL; with N. gonorrhoeae FA1090, 4 to 8 µg/mL (≈ 5.99 to 12 µM).
`NCCN1CCN(C(=O)N[C@@H](C(=O)N[C@H]2Cc3ccc(F)c(C(=O)O)c3OB2O)c2ncc(O)cc2F)C(=O)C1=O` [Example 230, (R)-3-((R)-2-(4-(2-aminoethyl)-2,3-dioxopiperazine-1-carboxamido)-2-(3-fluoro-5-hydroxypyridin-2-yl)acetamido)-7-fluoro-2-hydroxy-3,4-dihydro-2H-benzo[e][1,2]oxaborinine-8-carboxylic acid]: the EC50 at E. coli PBP3 (setting [3]) is under 30 µM. The MIC in test [1] was 2 to 4 µg/mL; in the test with P. aeruginosa ATCC 35151, under 0.25 µg/mL; with P. aeruginosa PAO1, 32 to 64 µg/mL; in the test on A. baumannii ATCC 19606 it was over 128 µg/mL; in the test on N. gonorrhoeae FA1090, 1 to 2 µg/mL (≈ 1.74 to 3.47 µM).
